Experimental findings from ChEMBL document CHEMBL1149899 (J Med Chem, 2008) are described below.

By Kd is commonly meant the equilibrium constant for the complex coming apart. A lower Kd goes with tighter binding. What is called IC50 is the concentration needed to halve the response being measured. Read a low IC50 as inhibition by little substance.

A short description of experiment [1]: Binding affinity to yeast Hsp90 by isothermal titration calorimetry. More on the design: species or system Saccharomyces cerevisiae. (ITC needs no label: the signal is the heat of the interaction.)
Experiment [2] can be described thus: Inhibition of ATPase activity of yeast Hsp90. Also noted: species or system Saccharomyces cerevisiae.

`COC1=C2C[C@@H](C)C[C@H](OC)[C@H](O)[C@@H](C)/C=C(\C)[C@H](OC(N)=O)[C@@H](OC)/C=C\C=C(/C)C(=O)NC(=CC1=O)C2=O` [GELDANAMYCIN] registered a Kd in experiment [1] of 1.2 µM. In experiment [2], the IC50 was found to be 7 µM.
